Assay results published in publication PMC7948494, “Structure of an ancestral ADP-dependent kinase with fructose-6P reveals key residues for binding, catalysis, and ligand-induced conformational changes” (The Journal of Biological Chemistry, 2020).
Changes are numbered by the printed parent chain.

Assays:
[1] = biological target: T1, AncMsPFK (synthetic construct, UniProt Z9Y5W3ZEF0); test: X-ray crystallography, […] Å; format: binding; conditions: closed conformation
T1 construct: synthetic gene in pET-15, N-terminal polyhistidine tag, E. coli BL21; heat step and Ni-Sepharose; 490 residues expected, one molecule per asymmetric unit
T1 sequence (Z9Y5W3ZEF0 22-511): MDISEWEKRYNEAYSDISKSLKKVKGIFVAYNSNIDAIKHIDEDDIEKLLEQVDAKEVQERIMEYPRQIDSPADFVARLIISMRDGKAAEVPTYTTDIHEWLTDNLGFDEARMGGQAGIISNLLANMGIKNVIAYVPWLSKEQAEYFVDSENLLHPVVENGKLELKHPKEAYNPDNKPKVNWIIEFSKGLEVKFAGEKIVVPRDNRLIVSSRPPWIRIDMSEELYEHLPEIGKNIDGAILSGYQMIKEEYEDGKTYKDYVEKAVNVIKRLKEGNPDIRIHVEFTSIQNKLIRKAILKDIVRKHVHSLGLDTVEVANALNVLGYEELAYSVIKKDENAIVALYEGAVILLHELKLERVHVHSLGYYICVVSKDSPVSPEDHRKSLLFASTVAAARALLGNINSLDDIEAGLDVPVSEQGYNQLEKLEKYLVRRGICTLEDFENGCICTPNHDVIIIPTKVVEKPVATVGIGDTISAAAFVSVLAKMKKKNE

[2] = biological target: T2, AncMsPFK (synthetic construct, UniProt Z9Y5W3ZEF0, E111A); test: coupled NADH oxidation assay, […] nm; format: biochemical; conditions: 1 mM ADP, 2 mM MgCl2, 100 mM Pipes pH 6.5, 25 °C; substrate inhibition fit
T2 construct: synthetic gene in pET-15, N-terminal polyhistidine tag, E. coli BL21; heat step and Ni-Sepharose; 490 residues expected, one molecule per asymmetric unit
T2 sequence (Z9Y5W3ZEF0 22-511 E111A): T1 sequence (Z9Y5W3ZEF0 22-511) with E90A

[3] = biological target: T1, AncMsPFK; test: coupled NADH oxidation assay, […] nm; format: biochemical; conditions: 1 mM ADP, 2 mM MgCl2, 100 mM Pipes pH 6.5, 25 °C

Nc1ncnc2c1ncn2[C@@H]1O[C@H](COP(=O)(O)OP(=O)(O)S)[C@@H](O)[C@H]1O (stereo partly shown) [ADPβS]
X-ray crystallography, 3.12 Å ([1]; ternary complex with F6P and Mg2+, nucleotide site): The structure of the AncMsPFK in complex with F6P-Mg-ADPβS was solved by molecular replacement

O=P(O)(O)OC[C@H]1OC(O)(CO)[C@@H](O)[C@@H]1O (stereo partly shown) [F6P]
X-ray crystallography, 3.12 Å ([1]; ternary complex with Mg-ADPβS, active site): The structure of the AncMsPFK in complex with F6P-Mg-ADPβS was solved by molecular replacement
F6P / KM mM [2]: 0.09 ± 9.6 × 10^−3 mM
F6P / KM mM [3]: 0.014 ± 1.5 × 10^−3 mM
